Laboratory results from patent US20240425491A1, “HETEROARYL COMPOUNDS USEFUL IN THE TREATMENT OF COGNITIVE DISORDERS” (University College Cardiff Consultants Limited, priority 2021, published 2024).
Structures can show the parent of a compound that is named as a salt.

Assays:
[1] = molecular target: T1, human α5β3γ2L GABAA receptors in HEK293 cells (Homo sapiens, UniProt P18507+P31644); assay: In vitro electrophysiological recording assay (α5-GABAAR relative efficacy), SyncroPatch; type: cell-based; conditions: Conc 0.1 μM; GABA EC10-20
T1 construct: expressed in transfected cells
Outline: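 HEK293 cells stably expressing the receptor, automated whole-cell patch clamp at −80 mV, room temperature (20-22° C). Compound pre-incubated 1-2 min, then co-applied with GABA EC10-20; % change in peak current vs GABA alone (leak-subtracted). Tested generally at ≥100× Ki and normalised to DMCM efficacy as relative efficacy.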

[2] = molecular target: T2, human recombinant GABAAR containing α5β3γ2 subunits (benzodiazepine site) (Homo sapiens, UniProt P18507+P31644); assay: In vitro radioligand binding assay (α5-GABAAR Ki); conditions: inhibition of [3H]Ro15-1788 binding, membranes of L(tk−) cells expressing human α5β3γ2; read-out: α5-GABAAR Ki
T2 construct: expressed in transfected cells; host or cells: mouse L(tk−) cells, dexamethasone-inducible vector pMSGneo
Outline: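 Displacement of 4 nM [^3H]flumazenil from the benzodiazepine site, read by filtration and scintillation, gave IC50, converted to Ki (Cheng-Prusoff, saturation-derived Kd). Receptor: human α5β3γ2 membranes from L(tk^−) cells, 50 μg protein/well; 1 h, 4° C; TP003 1 μM defined nonspecific binding.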

[3] = molecular target: T3, human α5β3γ2 GABAARs in mouse L(tk−) cells (Homo sapiens, UniProt P18507+P31644); assay: In vitro electrophysiological recording assay (α5-GABAAR relative efficacy), QPatch; type: cell-based; conditions: GABA EC10-20
T3 construct: expressed in transfected cells; host or cells: mouse L(tk−) cells, dexamethasone-inducible vector pMSGneo
Outline: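 Whole-cell QPatch recordings at 20-22° C, −65 mV holding, in dexamethasone-induced (1 μM, 24 h) L(tk−) cells. Compound pre-applied ≥1 min, then co-applied with GABA EC10-20; percentage change in leak-corrected peak current, taken at ≥100× Ki, normalised to DMCM efficacy; 0.1% DMSO final.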

[4] = tested on: mouse hippocampal brain slices (LTP suppressed by etomidate); assay: Electrophysiology in hippocampal slices - long term potentiation assay

T1 sequence (P31644 32-462): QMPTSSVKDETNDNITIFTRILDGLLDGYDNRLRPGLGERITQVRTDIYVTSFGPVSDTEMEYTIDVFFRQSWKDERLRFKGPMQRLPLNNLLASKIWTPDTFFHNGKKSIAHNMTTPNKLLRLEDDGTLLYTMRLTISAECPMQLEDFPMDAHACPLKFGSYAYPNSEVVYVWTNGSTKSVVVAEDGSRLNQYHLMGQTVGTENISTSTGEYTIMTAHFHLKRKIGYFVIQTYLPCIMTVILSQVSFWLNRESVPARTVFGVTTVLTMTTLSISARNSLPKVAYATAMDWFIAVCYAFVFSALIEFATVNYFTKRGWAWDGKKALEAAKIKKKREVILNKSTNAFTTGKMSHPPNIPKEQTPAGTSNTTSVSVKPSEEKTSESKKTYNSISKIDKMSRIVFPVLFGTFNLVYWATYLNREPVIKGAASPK
T1 sequence (P28472 26-473 partner): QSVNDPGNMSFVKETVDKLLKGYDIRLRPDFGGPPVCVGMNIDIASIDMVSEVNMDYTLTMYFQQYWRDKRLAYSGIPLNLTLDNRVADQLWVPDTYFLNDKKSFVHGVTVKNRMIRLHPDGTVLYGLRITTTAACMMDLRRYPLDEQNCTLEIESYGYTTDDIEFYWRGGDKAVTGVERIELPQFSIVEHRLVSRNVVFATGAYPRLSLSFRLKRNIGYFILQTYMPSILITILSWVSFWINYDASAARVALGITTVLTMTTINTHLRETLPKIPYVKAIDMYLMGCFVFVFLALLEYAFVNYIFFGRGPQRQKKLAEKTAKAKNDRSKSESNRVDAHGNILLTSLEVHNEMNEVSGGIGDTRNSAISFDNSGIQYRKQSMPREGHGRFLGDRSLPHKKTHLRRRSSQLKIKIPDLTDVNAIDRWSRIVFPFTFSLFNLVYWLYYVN
T1 sequence (P18507 40-475): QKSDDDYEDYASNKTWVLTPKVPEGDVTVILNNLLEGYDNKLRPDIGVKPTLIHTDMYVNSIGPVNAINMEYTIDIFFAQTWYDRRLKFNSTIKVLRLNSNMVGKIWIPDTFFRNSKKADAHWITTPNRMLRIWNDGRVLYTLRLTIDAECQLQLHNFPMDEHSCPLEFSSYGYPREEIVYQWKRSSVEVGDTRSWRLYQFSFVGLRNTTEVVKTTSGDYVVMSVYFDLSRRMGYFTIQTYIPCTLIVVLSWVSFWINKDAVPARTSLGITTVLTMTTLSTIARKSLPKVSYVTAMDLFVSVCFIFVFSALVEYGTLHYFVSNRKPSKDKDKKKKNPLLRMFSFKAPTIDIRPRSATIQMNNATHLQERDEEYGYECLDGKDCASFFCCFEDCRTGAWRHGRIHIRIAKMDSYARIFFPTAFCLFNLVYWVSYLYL
T2 sequence (P31644 32-462): as the sequence (P31644 32-462) above
T2 sequence (P28472 26-473 partner): as the sequence (P28472 26-473 partner) above
T2 sequence (P18507 40-475): as the sequence (P18507 40-475) above
T3 sequence (P31644 32-462): as the sequence (P31644 32-462) above
T3 sequence (P28472 26-473 partner): as the sequence (P28472 26-473 partner) above
T3 sequence (P18507 40-475): as the sequence (P18507 40-475) above

| Structure (SMILES) | α5-GABAAR Relative Efficacy (to DMCM), SyncroPatch [1] | Ki [2] [nM] | α5-GABAAR Relative Efficacy (to DMCM), Qpatch ([3]; Conc 0.3 μM) | α5-GABAAR Relative Efficacy (to DMCM), Qpatch ([3]; Conc 0.1 μM) | magnitude of LTP (fEPSP slope as % of control fEPSPs prior to 4-TBS vs time) ([4]; etomidate 3 μM alone, n=17, FIG. 2A) | fEPSP slope at 50-60 min post-delivery of the 4-TBS ([4]; etomidate alone compared to control, FIG. 2B) |
| --- | --- | --- | --- | --- | --- | --- |
| Cc1onc(-c2ccccc2)c1C(=O)Nc1ccc(-n2ccnc2)nc1OC(C)C [Example 206, N-(6-(1H-Imidazol-1-yl)-2-isopropoxypyridin-3-yl)-5-methyl-3-phenylisoxazole-4-carboxamide] | −1.03 | 1.7 | −0.55 | – | – | – |
| Cc1onc(-c2ccccc2)c1C(=O)Nc1ccc(-c2cnc(CN)nc2)nc1OC(C)C [Example 207, N-(6-(2-(Aminomethyl)pyrimidin-5-yl)-2-isopropoxypyridin-3-yl)-5-methyl-3-phenylisoxazole-4-carboxamide hydrochloride] | −0.83 | 0.3 | – | −0.56 | – | – |
| Cc1onc(-c2ccc(F)cc2)c1C(=O)Nc1ccc(-c2cnc3n2CCNC3)nc1OC(C)C.Cl [Example 208, 3-(4-Fluorophenyl)-N-(2-isopropoxy-6-(5,6,7,8-tetrahydroimidazo[1,2-a]pyrazin-3-yl)pyridin-3-yl)-5-methylisoxazole-4-carboxamide hydrochloride] | −0.70 | 0.7 | – | −0.38 | – | – |
| CCOC(=O)c1cncn1[C@H](C)c1ccccc1 [etomidate, reference compound] | – | – | – | – | reduced | significantly reduced fEPSP slope |
